Test results taken from patent US9884832B2 (priority 2011, dated 2018).

What follows are compounds tested against AM2 S31 (wild-type serine at position 31 in the M2 protein), influenza virus A/Udorn/72 (Influenza A virus, UniProt P0DOF5) (assay: cell-based). Details: 100 uM; Xenopus oocytes; activity range class.
AM2 S31 (wild-type serine at position 31 in the M2 protein), influenza virus A/Udorn/72, sequence (P0DOF5 whole entry, looked up): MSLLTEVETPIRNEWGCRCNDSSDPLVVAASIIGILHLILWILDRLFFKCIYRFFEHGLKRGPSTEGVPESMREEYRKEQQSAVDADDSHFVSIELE

SMILES	S31 OOcyte Inhibition at 100 uM (%)
F[B-](F)(F)C[NH2+]C12CC3CC(CC(C3)C1)C2 [Example 204a, N-[(Trifluoro-4-boranyl)methyl]adamantan-1-aminium]	A ((A)=31-95%)

Same assay, conditions: 100 uM; Xenopus oocytes; activity range class; read-out: S31 OOcyte Inhibition at 100 uM (%)

SMILES	inhibition at 100 µM [%]
Fc1ccc(-c2cc(CNC34CC5CC(CC(C5)C3)C4)no2)cc1 [Example 118a, N-((5-(4-fluorophenyl)isoxazol-3-yl)methyl)adamantan-1-amine]	0 to 30
Cc1ccc(-c2cc(CNC34CC5CC(CC(C5)C3)C4)no2)cc1 [Example 120a, N-((5-(p-tolyl)isoxazol-3-yl)methyl)adamantan-1-amine]	0 to 30
c1cc(C2CCCCC2)ccc1CNC12CC3CC(CC(C3)C1)C2 [Example 10a, Adamantan-1-yl-(4-cyclohexyl-benzyl)-amine]	0 to 30
Oc1cc(-c2ccccc2)ccc1CNC12CC3CC(CC(C3)C1)C2 [Example 47a, 4-(Adamantan-1-ylaminomethyl)-biphenyl-3-ol]	0 to 30
Cc1ccc(-c2nc(CNC34CC5CC(CC(C5)C3)C4)no2)cc1 [Example 128a, N-((5-(p-tolyl)-1,2,4-oxadiazol-3-yl)methyl)adamantan-1-amine]	0 to 30
CSc1ccc(-c2ccc(CNC34CC5CC(CC(C5)C3)C4)s2)cc1 [Example 112a, N-((5-(4-(methylthio)phenyl)thiophen-2-yl)methyl)adamantan-1-amine]	0 to 30
c1coc(-c2ccc(CNC34CC5CC(CC(C5)C3)C4)cn2)c1 [Example 60a, N-((6-(furan-2-yl)pyridin-3-yl)methyl)adamantan-1-amine]	0 to 30
c1ccn2c(CNC34CC5CC(CC(C5)C3)C4)cnc2c1 [Example 203a, Adamantan-1-yl-imidazo[1,2-a]pyridin-3-ylmethyl-amine]	31 to 95
Cc1c(CNC23CC4CC(CC(C4)C2)C3)sc2ccccc12 [Example 177a, Adamantan-1-yl-(3-methyl-benzo[b]thiophen-2-ylmethyl)-amine]	31 to 95
c1csc(-c2csc(CNC34CC5CC(CC(C5)C3)C4)c2)c1 [Example 140a, Adamantan-1-yl-[2,3′]bithiophenyl-5′-ylmethyl-amine]	0 to 30
Oc1ccc(CNC23CC4CC(CC(O)(C4)C2)C3)c(O)c1 [Example 196a, 4-[(3-Hydroxy-adamantan-1-ylamino)-methyl]-benzene-1,3-diol]	0 to 30
O=c1ccc2cc(CNC34CC5CC(CC(C5)C3)C4)ccc2o1 [Example 42a, 6-((adamantan-1-ylamino)methyl)-2H-chromen-2-one]	0 to 30
Clc1cccc2cc(CNC34CC5CC(CC(C5)C3)C4)sc12 [Example 183a, Adamantan-1-yl-(7-chloro-benzo[b]thiophen-2-ylmethyl)-amine]	31 to 95
Oc1cc(OCc2ccccc2)ccc1CNC12CC3CC(CC(C3)C1)C2 [Example 37a, 2-(Adamantan-1-ylaminomethyl)-5-benzyloxy-phenol]	31 to 95
c1csc(-c2nnc(CNC34CC5CC(CC(C5)C3)C4)s2)c1 [Example 151a, N-((5-(thiophen-2-yl)-1,3,4-thiadiazol-2-yl)methyl)adamantan-1-amine]	0 to 30
CC(C)c1csc(CNC23CC4CC(CC(C4)C2)C3)n1 [Example 84a, N-((4-isopropylthiazol-2-yl)methyl)adamantan-1-amine]	0 to 30
COc1ccc2cc(CNC34CC5CC(CC(C5)C3)C4)sc2c1 [Example 185a, N-((6-methoxybenzo[b]thiophen-2-yl)methyl)adamantan-1-amine]	0 to 30
COc1ccc2cc(CNC34CC5CC(CC(C5)C3)C4)ccc2c1 [Example 40a, Adamantan-1-yl-(6-methoxy-naphthalen-2-ylmethyl)-amine]	0 to 30
Oc1cc(Br)ccc1CNC12CC3CC(CC(C3)C1)C2 [Example 50a, 2-(((3s,5s,7s)-adamantan-1-ylamino)methyl)-5-bromophenol]	31 to 95
c1ccc(-c2nc(CNC34CC5CC(CC(C5)C3)C4)cs2)cc1 [Example 132a, N-((2-phenylthiazol-4-yl)methyl)adamantan-1-amine]	0 to 30
c1ccc(-c2ncc(CNC34CC5CC(CC(C5)C3)C4)cn2)nc1 [Example 64a, N-((2-(pyridin-2-yl)pyrimidin-5-yl)methyl)adamantan-1-amine]	0 to 30

Same assay, conditions: Table 1; 100 uM; Xenopus oocytes, pH 5.5, -20 mV; read-out: S31 OOcyte Inhibition at 100 uM (%)

SMILES	inhibition at 100 µM [%]
c1ccc(CNC23CC4CC(CC(C4)C2)C3)nc1 [Example 72, Adamantan-1-yl-pyridin-2-ylmethyl-amine]	0 to 30
CSc1ccc(CNC23CC4CC(CC(C4)C2)C3)cc1 [Example 23, Adamantan-1-yl-(4-methylsulfanyl-benzyl)-amine]	0 to 30
Oc1ccc(CNC2C3CC4CC(C3)CC2C4)c(O)c1 (stereo not drawn) [Example 100, 4-(Adamantan-2-ylaminomethyl)-benzene-1,3-diol]	31 to 95
COc1cc(O)cc(OC)c1CNC12CC3CC(CC(C3)C1)C2 [Example 66, 4-(Adamantan-1-ylaminomethyl)-3,5-dimethoxy-phenol]	31 to 95
c1cnn(-c2ccc(CNC34CC5CC(CC(C5)C3)C4)cc2)c1 [Example 35, Adamantan-1-yl-(4-pyrazol-1-yl-benzyl)-amine]	0 to 30
OCC(Cc1cnc[nH]1)NCC12CC3CC(CC(C3)C1)C2 (stereo not drawn) [Example 2, 2-[(adamantan-1-ylmethyl)-amino]-3-(3H-imidazol-4-yl)-propan-1-ol]	0 to 30
Oc1ccc(/C=N/C23CC4CC(CC(C4)C2)C3)cc1 [Example 6]	31 to 95
O=[N+]([O-])c1ccc(CNC23CC4CC(CC(C4)C2)C3)cc1 [Example 19, Adamantan-1-yl-(4-nitro-benzyl)-amine]	31 to 95
Fc1ccc(CNC23CC4CC(CC(C4)C2)C3)cc1 [Example 27, Adamantan-1-yl-(4-fluoro-benzyl)-amine]	31 to 95
CC(=O)Oc1ccc(CNC23CC4CC(CC(C4)C2)C3)cc1 [Example 33, Acetic acid 4-(adamantan-1-ylaminomethyl)-phenyl ester]	31 to 95
c1ccc2[nH]c(CNC34CC5CC(CC(C5)C3)C4)nc2c1 [Example 92, Adamantan-1-yl-(1H-benzoimidazol-2-ylmethyl)-amine]	0 to 30
Nc1ccc(CNC23CC4CC(CC(C4)C2)C3)cc1 [Example 11, Adamantan-1-yl-(4-amino-benzyl)-amine]	31 to 95
Oc1c(F)c(F)c(CNC23CC4CC(CC(C4)C2)C3)c(F)c1F [Example 71, 4-(Adamantan-1-ylaminomethyl)-2,3,5,6-tetrafluoro-phenol]	0 to 30
CCOc1ccc(CNC23CC4CC(CC(C4)C2)C3)cc1 [Example 20, Adamantan-1-yl-(4-ethoxy-benzyl)-amine]	0 to 30
c1cc(CNC23CC4CC(CC(C4)C2)C3)c2cc[nH]c2c1 [Example 96, Adamantan-1-yl-(1H-indol-4-ylmethyl)-amine]	31 to 95
Oc1ccc(CNC23CC4CC(CC(C4)C2)C3)cc1F [Example 48, 4-(Adamantan-1-ylaminomethyl)-2-fluoro-phenol]	31 to 95
CSc1ccc(CNC23CC4CC(CC(C4)C2)C3)c(SC)c1 [Example 55, Adamantan-1-yl-(2,4-bis-methylsulfanyl-benzyl)-amine]	0 to 30
c1ccc2sc(CNC34CC5CC(CC(C5)C3)C4)nc2c1 [Example 91, Adamantan-1-yl-benzothiazol-2-ylmethyl-amine]	0 to 30
COc1ccc(CN(C)C23CC4CC(CC(C4)C2)C3)cc1 [Example 32, Adamantan-1-yl-(4-methoxy-benzyl)-methyl-amine]	31 to 95
CC(=O)Oc1ccc(CNC23CC4CC(CC(C4)C2)C3)c(O)c1 [Example 60, Acetic acid 4-(adamantan-1-ylaminomethyl)-3-hydroxy-phenyl ester]	31 to 95
NCc1ccc(CNC23CC4CC(CC(C4)C2)C3)cc1 [Example 13, Adamantan-1-yl-(4-aminomethyl-benzyl)-amine]	0 to 30

Same assay, conditions: Table 3; 100 uM; Xenopus oocytes, pH 5.5, -20 mV; read-out: S31 OOcyte Inhibition at 100 uM (%)

SMILES	inhibition at 100 µM [%]
CC(NC12CC3CC(CC(C3)C1)C2)c1ccc(C(C)(C)C)cc1 (stereo not drawn) [Example 3b, N-(1-(4-(tert-butyl)phenyl)ethyl)adamantan-1-amine]	0 to 30
COc1ncc(CNC23CC4CC(CC(C4)C2)C3)c(OC)n1 [Example 64b, N-((2,4-dimethoxypyrimidin-5-yl)methyl)adamantan-1-amine]	0 to 30
Clc1ccccc1-c1nc(CNC23CC4CC(CC(C4)C2)C3)no1 [Example 31b, N-((5-(2-chlorophenyl)-1,2,4-oxadiazol-3-yl)methyl)adamantan-1-amine]	0 to 30
CCOC(=O)CN(C)c1ncc(CNC23CC4CC(CC(C4)C2)C3)cn1 [Example 60b, N-((2-methyl(ethylcarboxymethyl)aminopyrimidin-5-yl)methyl)adamantan-1-amine]	0 to 30
FC(F)(F)c1nnc(CNC23CC4CC(CC(C4)C2)C3)o1 [Example 14b, N-((5-(trifluoromethyl)-1,3,4-oxadiazol-2-yl)methyl)adamantan-1-amine]	0 to 30
COc1ccc(-c2noc(CNC34CC5CC(CC(C5)C3)C4)n2)cc1OC [Example 35b, N-((3-(3,4-dimethoxyphenyl)-1,2,4-oxadiazol-5-yl)methyl)adamantan-1-amine]	0 to 30
CSc1ccc(-c2cc(CNC34CC5CCC(CC(C5)C3)C4)no2)cc1 [Example 91b, (1S,3R,8S)—N-((5-(4-(methylthio)phenyl)isoxazol-3-yl)methyl)tricyclo[4.3.1.13,8]undecan-1-amine]	0 to 30
Cc1nnc(CNC23CC4CC(CC(C4)C2)C3)o1 [Example 17b, N-((5-methyl-1,3,4-oxadiazol-2-yl)methyl)adamantan-1-amine]	0 to 30
